PubChem BioAssay (NCI)
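The compound was tested at five concentrations on cells cultured in 96-well plates, with a 48-hour exposure period. GI50 marks 50% less growth. TGI: concentration producing complete growth inhibition.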

What was measured:
Test in all cases: DTP human tumour cell line panel, 48 h
786-0 renal = tested on: 786-0 renal
KM12 colon = tested on: KM12 colon
RPMI-8226 leukemia = tested on: RPMI-8226 leukemia
BT-549 breast = tested on: BT-549 breast
NCI-H460 lung = tested on: NCI-H460 lung
HCT-116 colon = tested on: HCT-116 colon
HCT-15 colon = tested on: HCT-15 colon
HT29 colon = tested on: HT29 colon
NCI-H23 lung = tested on: NCI-H23 lung
SNB-75 CNS = tested on: SNB-75 CNS

Row | SMILES | GI50 (786-0 renal) | TGI (786-0 renal) | GI50 (KM12 colon) | TGI (KM12 colon) | GI50 (RPMI-8226 leukemia) | TGI (RPMI-8226 leukemia) | GI50 (BT-549 breast) | TGI (BT-549 breast) | GI50 (NCI-H460 lung) | TGI (NCI-H460 lung) | GI50 (HCT-116 colon) | TGI (HCT-116 colon) | GI50 (HCT-15 colon) | TGI (HCT-15 colon) | GI50 (HT29 colon) | TGI (HT29 colon) | GI50 (NCI-H23 lung) | TGI (NCI-H23 lung) | GI50 (SNB-75 CNS) | TGI (SNB-75 CNS)
1 | COc1ccc2c(c1)C(=O)/C(=C/c1cccc(OCC(=O)Nc3nc(C)c(C)s3)c1)O2 | 0.0238 µM | 0.0545 µM | 0.075 µM | 2.62 µM | 0.104 µM | 0.587 µM | 2.37 µM | 7.63 µM | 2.71 µM | 8.49 µM | 0.17 µM | 0.564 µM | 1.34 µM | 2.98 µM | 0.0302 µM | 0.111 µM | 0.0547 µM | 0.715 µM | 0.0115 µM | 0.037 µM
2 | O=C(NN1C(=O)CSC1c1cccc(Cl)c1)C(O)c1ccccc1 (stereo not given) | > 100 µM | > 100 µM | 90.4 µM | > 100 µM | 23.1 µM | > 100 µM | > 100 µM | > 100 µM | 42.8 µM | > 100 µM | 83.8 µM | > 100 µM | 68.6 µM | > 100 µM | > 100 µM | > 100 µM | 56.3 µM | > 100 µM | 65 µM | > 100 µM
3 | COc1ccc(-c2cnnn2-c2nonc2-n2cccc2)cc1OC | 7.15 µM | > 100 µM | 2.73 µM | > 100 µM | 4.85 µM | > 100 µM | 4.06 µM | > 100 µM | 3.75 µM | > 100 µM | 4.19 µM | > 100 µM | 2.38 µM | > 100 µM | 3.31 µM | > 100 µM | 4.09 µM | > 100 µM | 4.19 µM | 39.2 µM
4 | CCCCCCCCCc1ccc(OCCOCCOCCOCCOCCOCCOCCOCCOCCO)cc1 | 1.02 µM | 4.12 µM | 0.598 µM | 4.02 µM | 0.0368 µM | 1.76 µM | 0.59 µM | 1.61 µM | 0.301 µM | 1.65 µM | 0.374 µM | 1.59 µM | 0.761 µM | 1.84 µM | 0.685 µM | 1.98 µM | 0.257 µM | 3.26 µM | 0.881 µM | 2.48 µM
5 | N=c1ccc2nc3ccc(N)cc3sc-2c1 | 9.99 µM | 29.7 µM | 4.24 µM | > 100 µM | 2.87 µM | 26 µM | 10.6 µM | 60.9 µM | 5.23 µM | > 100 µM | 2.67 µM | 10.5 µM | 5.4 µM | > 100 µM | 11.1 µM | 40.8 µM | 2.77 µM | 14.3 µM | 3.77 µM | 16.4 µM
6 | Cn1c(=O)n(C)c2cc(CNCCNc3ccnc4cc(Cl)ccc34)ccc21 | 23.1 µM | 71.8 µM | 37.3 µM | > 100 µM | 20.9 µM | 65.6 µM | > 100 µM | > 100 µM | 20.9 µM | 60.8 µM | 17.9 µM | 54.5 µM | 31 µM | > 100 µM | 21.1 µM | > 100 µM | 48.8 µM | > 100 µM | 13.1 µM | 35.6 µM
7 | CC(=O)c1ccc2c(c1)N(CCCN1CCN(CCO)CC1)c1ccccc1S2 | 1.77 µM | 3.64 µM | 1.97 µM | 4.04 µM | 2.4 µM | 8.75 µM | 3.38 µM | 11.9 µM | 2.05 µM | 4.09 µM | 1.81 µM | 3.49 µM | 1.99 µM | 5.01 µM | 1.7 µM | 3.75 µM | 5.68 µM | 18.9 µM | 1.53 µM | 3.51 µM
8 | CCCN(CCC)c1ccc(C=O)c(Cl)c1 | 20 µM | 53 µM | 28.6 µM | > 83.6 µM | 40.1 µM | > 100 µM | 24 µM | > 80.4 µM | 2.19 µM | 39.3 µM | 2.2 µM | 19 µM | 24 µM | > 100 µM | 18.4 µM | 50.2 µM | 25.6 µM | > 100 µM | 16.5 µM | 55.8 µM
9 | CCSc1ccc([C@@H]2[C@@H](O)C(=O)N2c2cc(OC)c(OC)c(OC)c2)cc1 | < 0.016 µM | 29 µM | < 0.0133 µM | 33.7 µM | 0.0279 µM | 12 µM | 0.0264 µM | 0.503 µM | < 0.0138 µM | 11.9 µM | < 0.011 µM | 3.06 µM | < 0.0109 µM | > 44.3 µM | < 0.0155 µM | 11.5 µM | 0.0456 µM | 61 µM | < 0.011 µM | 65.1 µM
10 | C=CC(C)(C)n1cc(C2=C(O)C(=O)C(c3cn(C(C)(C)C=C)c4ccccc34)=C(O)C2=O)c2ccccc21 |  | > 34.8 µM |  | 13.5 µM |  | 40.2 µM |  | 3.63 µM |  | 12.6 µM |  | > 33.9 µM |  | 5.01 µM |  | 16.2 µM |  | 7.83 µM |  | 7.77 µM
11 | CCCC(=O)N[C@H]1CCc2cc(OC)c(OC)c(OC)c2-c2ccc(SC)c(=O)cc21 |  | 63.1 µM |  | < 0.01 µM |  | > 100 µM |  | < 0.01 µM |  | 0.0522 µM |  | 0.176 µM |  | > 100 µM |  | 0.724 µM |  | 2.18 µM |  | 15.6 µM
12 | O=C(c1ccc2ccccc2c1)c1nc2cc(F)ccc2[n+]([O-])c1C(F)(F)F | 31.6 µM | > 100 µM | 19 µM | 39.4 µM | 20.1 µM | 53.7 µM | 17.5 µM | 33 µM | 18.8 µM | 38 µM | 18.4 µM | 33.1 µM | 13 µM | 27.8 µM | 16.3 µM | 35.2 µM | 13 µM | 29.1 µM | 17 µM | 35.9 µM
13 | COc1ccc(C2=NC(=O)NC2c2ccc(OC)cc2)cc1 (stereo not given) | 26.9 µM | > 100 µM | 4.5 µM | 29.5 µM | 7.58 µM | 50.6 µM | 3.89 µM | 29.5 µM | 6.73 µM | 51.8 µM | 5.9 µM | 27.7 µM | 4.78 µM | > 100 µM | 3.78 µM | 27.9 µM | 12.9 µM | 78.3 µM | 5.39 µM | 65 µM
14 | COc1cc(C2=NN(C(C)=O)C(c3cc(OC)c(OC)c(OC)c3)C2)ccc1O (stereo not given) | 0.458 µM | > 100 µM | 0.32 µM | > 100 µM | 0.311 µM | 4.03 µM | 1.09 µM | > 100 µM | 0.346 µM | > 40.8 µM | 0.385 µM | > 73.6 µM | 0.392 µM | > 100 µM | 0.358 µM | > 100 µM | 0.51 µM | > 100 µM | 0.26 µM | > 100 µM
15 | CC(NC(=O)Cc1ccc(C(F)(F)P(=O)(OCc2ccc([N+](=O)[O-])o2)N(C)CCCCCl)cc1)c1ccc(OCC2CCCCC2)c(C(N)=O)c1 (stereo not given) | 1.77 µM | 3.97 µM | 3.32 µM | 10.2 µM | 1.14 µM | 3.86 µM | 5.27 µM | 13.5 µM | 8.26 µM | 26.2 µM | 1.93 µM | 4.11 µM | 4.85 µM | 16.1 µM | 5.8 µM | 21.2 µM | 4.11 µM | 15.3 µM | 4.7 µM | 9.97 µM
16 | CN(Cc1ccc(F)cc1)c1ccc(CO)c(Cl)c1 | 10.5 µM | 30.4 µM | 27.1 µM | > 76.9 µM | 12.4 µM | 60.6 µM | 12.3 µM | 39.9 µM | 1.41 µM | 13.9 µM | 0.412 µM | 11.9 µM | 18.3 µM | > 100 µM | 8.38 µM | 67.1 µM | 11.6 µM | > 72.7 µM | 18.4 µM | 89.5 µM
17 | c1ccc(-c2nc3n(c2-c2ccc4c(c2)OCO4)CCC3)nc1 | 3.89 µM | 24.9 µM | 5.9 µM | > 25 µM | 9.88 µM | > 25 µM | 10 µM | > 25 µM | 4.51 µM | 13.3 µM | 8.16 µM | > 25 µM | 0.766 µM | > 25 µM | 7.79 µM | > 25 µM | 9.59 µM | > 25 µM | 6.42 µM | > 25 µM
